Measured values as given in patent publication US20060281764A1, “AMINOPYRIMIDINES AS KINASE MODULATORS” (priority 2005, published 2006).

biological target: T1, TrkB (Homo sapiens, UniProt Q16620); assay: Trk B Fluorescence Polarization Kinase Assay; type: biochemical; settings: FP assay, 150 uM ATP, 50 nM TrkB; uncertainty ±10%
T1 construct: purchased Upstate 14-507M
Experimental: The compounds of the present invention are also specific inhibitors of TrkB. Selection of preferred compounds of Formula I for use as TrkB inhibitors was performed in the following manner. The TrkB assay utilized the fluorescein-labeled phosphopeptide and the anti-phosphotyrosine antibody included in the Panvera Phospho-Tyrosine Kinase Kit (Green) supplied by Invitrogen. When TrkB phosphorylated poly Glu4Tyr, the fluorescein-labeled phosphopeptide was displaced from the anti-phosphotyrosine antibody by the phosphorylated poly Glu4Tyr, thus decreasing the FP value. The TrkB kinase reaction was incubated at room temperature for 30 minutes under the following conditions: 50 nM TrkB (Upstate, catalog # 14-507M), 20 ug/mL poly Glu4Tyr, 150 uM ATP, 5 mM MgCl2, 1% compound in DMSO. The kinase reaction was stopped with the addition of EDTA. The fluorescein-labeled phosphopeptide and the anti-phosphotyrosine antibody were added and incubated for 30 minutes at room temperature. Data points were an average of triplicate samples. Inhibition and IC50 data analysis were done with GraphPad Prism using a non-linear regression fit with a multiparamater, sigmoidal dose-response (variable slope) equation.

T1 sequence (Q16620 32-822): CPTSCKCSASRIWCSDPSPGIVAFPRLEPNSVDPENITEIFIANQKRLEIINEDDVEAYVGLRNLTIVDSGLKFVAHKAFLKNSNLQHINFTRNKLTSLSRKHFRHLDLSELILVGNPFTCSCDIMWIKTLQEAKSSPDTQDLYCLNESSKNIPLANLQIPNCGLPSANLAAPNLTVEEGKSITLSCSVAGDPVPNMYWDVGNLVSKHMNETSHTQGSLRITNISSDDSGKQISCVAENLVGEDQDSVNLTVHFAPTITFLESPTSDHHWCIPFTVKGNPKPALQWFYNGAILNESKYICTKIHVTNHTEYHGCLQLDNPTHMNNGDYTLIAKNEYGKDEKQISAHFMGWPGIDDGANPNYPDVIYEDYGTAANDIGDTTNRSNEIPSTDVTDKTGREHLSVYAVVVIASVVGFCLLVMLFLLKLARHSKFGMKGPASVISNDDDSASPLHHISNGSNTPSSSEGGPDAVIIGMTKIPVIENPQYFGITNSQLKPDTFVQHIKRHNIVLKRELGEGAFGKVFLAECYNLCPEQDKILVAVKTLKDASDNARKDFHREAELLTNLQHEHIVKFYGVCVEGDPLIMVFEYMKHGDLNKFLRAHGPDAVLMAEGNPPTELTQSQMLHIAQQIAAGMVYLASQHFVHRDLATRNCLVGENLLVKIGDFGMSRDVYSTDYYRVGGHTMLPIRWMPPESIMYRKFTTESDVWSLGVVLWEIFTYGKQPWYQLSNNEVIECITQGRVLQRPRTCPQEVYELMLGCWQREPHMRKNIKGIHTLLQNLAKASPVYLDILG

Row | IC50 [µM] | Compound
1 | > 42 | CC(C)Oc1ccc(NC(=O)OC2CCN(c3ncnc(N)c3/C=N/OCCCN(C)C)CC2)cc1 [Example 4, (4-Isopropoxy-phenyl)-carbamic acid 1-{6-amino-5-[(3-dimethylamino-propoxyimino)-methyl]-pyrimidin-4-yl}-piperidin-4-yl ester]
2 | 14.2 | CO/N=C/c1c(N)ncnc1N1CCC(NC(=O)Nc2ccc(OC(C)C)cc2)C1 (stereo not shown) [Example 8, 1-{1-[6-Amino-5-(methoxyimino-methyl)-pyrimidin-4-yl]-pyrrolidin-3-yl}-3-(4-isopropoxy-phenyl)-urea]
3 | > 42 | CC(C)Oc1ccc(NC(=O)OC2CCN(c3ncnc(N)c3/C=N/OCCN3CCOCC3)CC2)cc1 [Example 3, (4-Isopropoxy-phenyl)-carbamic acid 1-{6-amino-5-[(2-morpholin-4-yl-ethoxyimino)-methyl]-pyrimidin-4-yl}-piperidin-4-yl ester]
4 | 29.4 | CO/N=C/c1c(N)ncnc1N1CCC(OC(=O)Nc2ccc(OC(C)C)cc2)CC1 [Example 1, (4-Isopropoxy-phenyl)-carbamic acid 1-[6-amino-5-(methoxyimino-methyl)-pyrimidin-4-yl]-piperidin-4-yl ester]
5 | 8.5 | CO/N=C/c1c(N)ncnc1N1CCC(NC(=O)Nc2ccc(OC(C)C)cc2)CC1 [Example 12, 1-{1-[6-Amino-5-(methoxyimino-methyl)-pyrimidin-4-yl]-piperidin-4-yl}-3-(4-isopropoxy-phenyl)-urea]
6 | 2.16 | CO/N=C/c1c(N)ncnc1N1CCC(CC(=O)Nc2ccc(C(C)C)cc2)CC1 [Example 7, 2-{1-[6-Amino-5-(methoxyimino-methyl)-pyrimidin-4-yl]-piperidin-4-yl}-N-(4-isopropyl-phenyl)-acetamide]
7 | 23.9 | CO/N=C/c1c(N)ncnc1N1CCC(OC(=O)Nc2ccc(C(C)C)cc2)CC1 [Example 5, (4-Isopropyl-phenyl)-carbamic acid 1-[6-amino-5-(methoxyimino-methyl)-pyrimidin-4-yl]-piperidin-4-yl ester]
8 | > 42 | CCO/N=C/c1c(N)ncnc1N1CCC(OC(=O)Nc2ccc(OC(C)C)cc2)CC1 [Example 2, (4-Isopropoxy-phenyl)-carbamic acid 1-[6-amino-5-(ethoxyimino-methyl)-pyrimidin-4-yl]-piperidin-4-yl ester]

Second part, the molecule before the results:

Row | Compound | IC50 [µM]
9 | CO/N=C/c1c(N)ncnc1N1CCC(NC(=O)Nc2ccc(OC3CCC3)nc2)C1 (stereo not shown) [Example 11, 1-{1-[6-Amino-5-(methoxyimino-methyl)-pyrimidin-4-yl]-pyrrolidin-3-yl}-3-(6-cyclobutoxy-pyridin-3-yl)-urea] | 4.2
10 | CO/N=C/c1c(N)ncnc1N1CCC(NC(=O)Nc2ccc(N3CCCCC3)cc2)CC1 [Example 13, 1-{1-[6-Amino-5-(methoxyimino-methyl)-pyrimidin-4-yl]-piperidin-4-yl}-3-(4-piperidin-1-yl-phenyl)-urea] | 2.9
11 | CO/N=C/c1c(N)ncnc1N1CCC(NC(=O)Nc2ccc(OC3CCC3)nc2)CC1 [Example 15, 1-{1-[6-Amino-5-(methoxyimino-methyl)-pyrimidin-4-yl]-piperidin-4-yl}-3-(6-cyclobutoxy-pyridin-3-yl)-urea] | > 42
12 | CO/N=C/c1c(N)ncnc1N1CCC(CC(=O)Nc2ccc(C(C)C)cc2)C1 (stereo not shown) [Example 6, 2-{1-[6-Amino-5-(methoxyimino-methyl)-pyrimidin-4-yl]-pyrrolidin-3-yl}-N-(4-isopropyl-phenyl)-acetamide] | 0.3
13 | CO/N=C/c1c(N)ncnc1N1CCC(NC(=O)Nc2ccc(N3CCOCC3)cc2)CC1 [Example 14, 1-{1-[6-Amino-5-(methoxyimino-methyl)-pyrimidin-4-yl]-piperidin-4-yl}-3-(4-morpholin-4-yl-phenyl)-urea] | 15.6
14 | CO/N=C/c1c(N)ncnc1N1CCC(NC(=O)Nc2ccc(N3CCCCC3)cc2)C1 (stereo not shown) [Example 9, 1-{1-[6-Amino-5-(methoxyimino-methyl)-pyrimidin-4-yl]-pyrrolidin-3-yl}-3-(4-piperidin-1-yl-phenyl)-urea] | 11.9
15 | CO/N=C/c1c(N)ncnc1N1CCC(NC(=O)Cc2ccc(C(C)C)cc2)CC1 [Example 16, N-{1-[6-Amino-5-(methoxyimino-methyl)-pyrimidin-4-yl]-piperidin-4-yl}-2-(4-isopropyl-phenyl)-acetamide] | 7.4
16 | CO/N=C/c1c(N)ncnc1N1CCC(NC(=O)Nc2ccc(N3CCOCC3)cc2)C1 (stereo not shown) [Example 10, 1-{1-[6-Amino-5-(methoxyimino-methyl)-pyrimidin-4-yl]-pyrrolidin-3-yl}-3-(4-morpholin-4-yl-phenyl)-urea] | 32.1

biological target: T2, FLT ligand-induced wild-type FLT3 phosphorylation in Baf3 FLT3 cells (Homo sapiens, UniProt P36888); assay: Cell-Based FLT3 Receptor Elisa (Baf3 FLT3 cells); settings: 1 hour compound incubation, 100 ng/mL Flt ligand, uncertainty ±20%
T2 construct: host or cells: Baf3 (murine B cell lymphoma line)
T2 sequence (P36888 27-993): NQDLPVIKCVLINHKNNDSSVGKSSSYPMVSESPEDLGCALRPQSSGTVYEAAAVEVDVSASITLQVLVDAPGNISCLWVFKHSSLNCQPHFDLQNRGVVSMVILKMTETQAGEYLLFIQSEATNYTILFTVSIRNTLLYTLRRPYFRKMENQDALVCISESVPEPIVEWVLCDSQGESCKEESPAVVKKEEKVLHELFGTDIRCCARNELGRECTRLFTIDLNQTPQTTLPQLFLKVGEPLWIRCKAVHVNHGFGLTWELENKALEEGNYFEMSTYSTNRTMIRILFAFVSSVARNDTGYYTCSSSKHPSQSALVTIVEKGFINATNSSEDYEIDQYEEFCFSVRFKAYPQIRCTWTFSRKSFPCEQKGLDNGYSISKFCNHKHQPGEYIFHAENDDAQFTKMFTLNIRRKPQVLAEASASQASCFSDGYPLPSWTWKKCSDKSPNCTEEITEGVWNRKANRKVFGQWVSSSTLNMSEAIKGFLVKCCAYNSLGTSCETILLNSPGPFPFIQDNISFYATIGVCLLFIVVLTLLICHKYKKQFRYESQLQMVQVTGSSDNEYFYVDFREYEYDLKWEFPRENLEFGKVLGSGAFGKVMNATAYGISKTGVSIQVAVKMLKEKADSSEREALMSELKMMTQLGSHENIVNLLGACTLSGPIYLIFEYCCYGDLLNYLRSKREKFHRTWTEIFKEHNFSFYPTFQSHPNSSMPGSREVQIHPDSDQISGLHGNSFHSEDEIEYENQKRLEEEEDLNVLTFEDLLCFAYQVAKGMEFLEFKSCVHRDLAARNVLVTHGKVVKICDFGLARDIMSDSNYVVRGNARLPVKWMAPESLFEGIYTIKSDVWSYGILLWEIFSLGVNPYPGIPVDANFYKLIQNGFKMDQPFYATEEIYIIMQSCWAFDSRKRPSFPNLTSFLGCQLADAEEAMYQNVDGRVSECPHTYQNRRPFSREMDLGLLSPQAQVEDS
Experimental: Specific cellular inhibition of FLT ligand-induced wild-type FLT3 phosphorylation was measured in the following manner: Baf3 FLT3 cells overexpressing the FLT3 receptor were obtained from Dr. Michael Heinrich (Oregon Health and Sciences University). The Baf3 FLT3 cell lines were created by stable transfection of parental Baf3 cells (a murine B cell lymphoma line dependent on the cytokine IL-3 for growth) with wild-type FLT3. Cells were selected for their ability to grow in the absence of IL-3 and in the presence of FLT3 ligand.
Baf3 cells were maintained in RPMI 1640 with 10% FBS, penn/strep and 10 ng/ml FLT ligand at 37° C., 5% CO2. To measure direct inhibition of the wild-type FLT3 receptor activity and phosphorylation a sandwich ELISA method was developed similar to those developed for other RTKs (3,4). 200 μL of Baf3FLT3 cells (1×10^6/mL) were plated in 96 well dishes in RPMI 1640 with 0.5% serum and 0.01 ng/mL IL-3 for 16 hours prior to 1 hour compound or DMSO vehicle incubation. Cells were treated with 100 ng/mL Flt ligand (R&D Systems Cat# 308-FK) for 10 min. at 37° C. Cells were pelleted, washed and lysed in 100 ul lysis buffer (50 mM Hepes, 150 mM NaCl, 10% Glycerol, 1% Triton —X-100, 10 mM NaF, 1 mM EDTA, 1.5 mM MgCl2, 10 mM NaPyrophosphate) supplemented with phosphatase (Sigma Cat# P2850) and protease inhibitors (Sigma Cat #P8340). […]

Row | IC50 [µM] | Compound
17 | 0.345 | CC(C)Oc1ccc(NC(=O)OC2CCN(c3ncnc(N)c3/C=N/OCCCN(C)C)CC2)cc1 [Example 4, (4-Isopropoxy-phenyl)-carbamic acid 1-{6-amino-5-[(3-dimethylamino-propoxyimino)-methyl]-pyrimidin-4-yl}-piperidin-4-yl ester]

biological target: T3, isolated kinase domain of the human c-kit receptor (Homo sapiens, UniProt P10721); assay: c-Kit Fluorescence Polarization Kinase Assay; type: biochemical; settings: FP assay, 50 uM ATP, 1 nM c-kit; uncertainty ±10%
T3 construct: isolated kinase domain of the human c-kit receptor; purchased ProQinase lot SP005
T3 sequence (P10721 589-937 limits assumed): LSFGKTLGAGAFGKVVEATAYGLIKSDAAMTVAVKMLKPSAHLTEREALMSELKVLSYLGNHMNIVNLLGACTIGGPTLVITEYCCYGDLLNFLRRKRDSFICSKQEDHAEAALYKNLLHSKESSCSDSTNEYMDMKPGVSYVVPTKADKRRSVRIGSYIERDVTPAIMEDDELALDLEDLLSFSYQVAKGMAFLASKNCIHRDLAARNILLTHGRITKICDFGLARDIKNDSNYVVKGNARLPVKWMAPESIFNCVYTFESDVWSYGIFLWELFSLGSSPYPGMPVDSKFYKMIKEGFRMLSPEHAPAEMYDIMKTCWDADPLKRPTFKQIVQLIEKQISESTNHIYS
Experimental: The compounds of the present invention are also specific inhibitors of c-Kit. Selection of preferred compounds of Formula I for use as c-Kit inhibitors was performed in the following manner using an in vitro kinase assay to measure inhibition of the isolated kinase domain of the human c-kit receptor in a fluorescence polarization (FP) protocol. The c-kit assay utilized the fluorescein-labeled phosphopeptide and the anti-phosphotyrosine antibody included in the Panvera Phospho-Tyrosine Kinase Kit (Green) supplied by Invitrogen. When c-kit phosphorylated the poly Glu4Tyr, the fluorescein-labeled phosphopeptide was displaced from the anti-phosphotyrosine antibody by the phosphorylated poly Glu4Tyr, thus decreasing the FP value. The c-kit kinase reaction was incubated at room temperature for 45 minutes under the following conditions: 1 nM c-kit (ProQinase, lot SP005), 100 ug/mL poly Glu4Tyr, 50 uM ATP, 5 mM MgCl2, 1 mM DTT, 0.01% Tween-20, 1% DMSO or compound in […], pH 7.5. The kinase reaction was stopped with the addition of EDTA. The fluorescein-labeled phosphopeptide and the anti-phosphotyrosine antibody were added and incubated for 30 minutes at room temperature and fluorescence polarization was read. Data points were an average of triplicate samples. […]

Row | IC50 [µM] | Compound
18 | 0.016 | CO/N=C/c1c(N)ncnc1N1CCC(CC(=O)Nc2ccc(C(C)C)cc2)C1 (stereo not shown) [Example 6, 2-{1-[6-Amino-5-(methoxyimino-methyl)-pyrimidin-4-yl]-pyrrolidin-3-yl}-N-(4-isopropyl-phenyl)-acetamide]
19 | 0.38 | CCO/N=C/c1c(N)ncnc1N1CCC(OC(=O)Nc2ccc(OC(C)C)cc2)CC1 [Example 2, (4-Isopropoxy-phenyl)-carbamic acid 1-[6-amino-5-(ethoxyimino-methyl)-pyrimidin-4-yl]-piperidin-4-yl ester]
